# Experimental data reported in patent US11787802B2, “Dihydrobenzimidazolones for medical treatment” (C4 Therapeutics, Inc., priority 2017, dated 2023).
# Where a name gives a salt, the structure may show the parent alone.
# Target: hCereblon(M1-L442)_hDDB1(M1-H1140) (Homo sapiens (Human), UniProt Q96SW2)
# Assay: Fluorescence direct binding protocol (tryptophan fluorescence titration)
# Conditions: fluorescence titration at 20° C., excited at 280 nm, recorded at 340 nm; protein 5.0 E−8 M; assay buffer 50 mM Hepes 7.4 200 mM NaCl; read-out: Fluorescence h-Cereblon_DDB1 Mean Kd_EQ
# How it was run: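 At 20° C., protein at constant concentration was titrated with ligand in DMSO over at least 12 steps, exciting tryptophan at 280 nm and reading emission at 340 nm. Intensities were corrected for dilution and filter effect, and Kd was fitted assuming 1:1 binding.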
# hCereblon(M1-L442)_hDDB1(M1-H1140), sequence (Q96SW2 whole entry): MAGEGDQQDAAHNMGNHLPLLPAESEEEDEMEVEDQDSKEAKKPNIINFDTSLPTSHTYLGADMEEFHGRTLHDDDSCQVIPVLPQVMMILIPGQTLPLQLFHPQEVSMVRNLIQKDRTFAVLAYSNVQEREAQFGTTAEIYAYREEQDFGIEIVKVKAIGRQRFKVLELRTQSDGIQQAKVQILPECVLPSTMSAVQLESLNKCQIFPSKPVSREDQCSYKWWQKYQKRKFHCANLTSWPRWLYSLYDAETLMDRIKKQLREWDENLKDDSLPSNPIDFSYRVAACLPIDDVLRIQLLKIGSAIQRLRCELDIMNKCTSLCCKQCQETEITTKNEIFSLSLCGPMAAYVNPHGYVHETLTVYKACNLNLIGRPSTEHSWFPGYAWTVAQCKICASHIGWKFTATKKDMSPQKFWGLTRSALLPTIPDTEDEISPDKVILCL
# hCereblon(M1-L442)_hDDB1(M1-H1140), sequence (Q16531 whole entry partner): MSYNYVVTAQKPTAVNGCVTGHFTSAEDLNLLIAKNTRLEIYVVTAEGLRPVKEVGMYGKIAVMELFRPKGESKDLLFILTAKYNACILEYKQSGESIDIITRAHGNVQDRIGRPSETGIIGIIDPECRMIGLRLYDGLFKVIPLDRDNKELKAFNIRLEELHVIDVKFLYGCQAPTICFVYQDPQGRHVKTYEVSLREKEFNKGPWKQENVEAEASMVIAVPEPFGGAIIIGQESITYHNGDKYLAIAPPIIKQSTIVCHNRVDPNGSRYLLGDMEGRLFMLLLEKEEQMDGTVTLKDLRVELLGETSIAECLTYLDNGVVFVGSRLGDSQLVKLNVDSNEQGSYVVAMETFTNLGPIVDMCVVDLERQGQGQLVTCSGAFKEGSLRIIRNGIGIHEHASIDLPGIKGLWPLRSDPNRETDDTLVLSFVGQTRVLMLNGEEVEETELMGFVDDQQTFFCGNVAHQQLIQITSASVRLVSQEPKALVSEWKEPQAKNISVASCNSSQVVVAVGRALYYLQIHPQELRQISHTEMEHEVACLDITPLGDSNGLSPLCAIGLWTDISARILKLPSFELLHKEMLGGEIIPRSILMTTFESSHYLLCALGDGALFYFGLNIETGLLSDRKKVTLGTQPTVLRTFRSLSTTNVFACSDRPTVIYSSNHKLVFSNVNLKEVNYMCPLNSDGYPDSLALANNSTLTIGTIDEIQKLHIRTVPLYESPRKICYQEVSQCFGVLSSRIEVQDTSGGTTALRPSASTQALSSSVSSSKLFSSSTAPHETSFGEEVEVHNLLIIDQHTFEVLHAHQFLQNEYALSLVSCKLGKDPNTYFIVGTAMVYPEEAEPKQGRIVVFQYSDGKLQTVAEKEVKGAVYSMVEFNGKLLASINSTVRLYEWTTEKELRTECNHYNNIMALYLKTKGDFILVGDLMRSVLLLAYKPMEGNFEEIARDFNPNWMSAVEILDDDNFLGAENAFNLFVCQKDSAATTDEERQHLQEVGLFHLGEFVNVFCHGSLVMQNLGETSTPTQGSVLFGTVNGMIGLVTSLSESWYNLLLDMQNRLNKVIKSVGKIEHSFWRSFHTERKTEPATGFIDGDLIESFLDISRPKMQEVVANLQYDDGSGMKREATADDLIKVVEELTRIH
row,SMILES,Kd [nM]
1,"O=c1[nH]c2ccc(S(=O)(=O)N3CCc4ccccc43)cc2[nH]1 [Example 116, 5-(Indolin-1-ylsulfonyl)-1,3-dihydro-2H-benzo[d]imidazol-2-one]",48
2,"CC(=O)N1CCC(NS(=O)(=O)c2ccc3[nH]c(=O)[nH]c3c2)CC1 [Example 117, N-(1-Acetylpiperidin-4-yl)-2-oxo-2,3-dihydro-1H-benzo[d]imidazole-5-sulfonamide]",8
3,"COC(=O)c1ccc(S(=O)(=O)Nc2ccc3[nH]c(=O)[nH]c3c2)cc1 [Example 118, Methyl 4-(N-(2-oxo-2,3-dihydro-1H-benzo[d]imidazol-5-yl)sulfamoyl)benzoate]",82
4,"CC(C)(C)OC(=O)Nc1ccc2c(c1)CCN2C(=O)Nc1ccc2[nH]c(=O)[nH]c2c1 [Example 119, tert-Butyl (1-((2-oxo-2,3-dihydro-1H-benzo[d]imidazol-5-yl)carbamoyl)indolin-5-yl)carbamate]",113
5,"CC(C)c1nc2cc(OCc3ccccc3)ccc2n1-c1ccc2[nH]c(=O)[nH]c2c1 [Example 120, 5-(Benzyloxy)-2-isopropyl-1′,3′-dihydro-2′H-[1,5′-bibenzo[d]imidazol]-2′-one]",194
6,"Nc1ccc2c(c1)CCN2C(=O)Nc1ccc2[nH]c(=O)[nH]c2c1 [Example 121, 5-Amino-N-(2-oxo-2,3-dihydro-1H-benzo[d]imidazol-5-yl)indoline-1-carboxamide]",65
7,"Cc1ccccc1-c1ccccc1C(=O)Nc1ccc2[nH]c(=O)[nH]c2c1 [Example 122, 2′-Methyl-N-(2-oxo-2,3-dihydro-1H-benzo[d]imidazol-5-yl)-[1,1′-biphenyl]-2-carboxamide]",730
8,"O=C(Nc1ccc2[nH]c(=O)[nH]c2c1)c1ccccc1Cc1ccccc1 [Example 123, 2-Benzyl-N-(2-oxo-2,3-dihydro-1H-benzo[d]imidazol-5-yl)benzamide]",22
9,"COc1ccc2c(c1)nc(C(C)C)n2-c1ccc2[nH]c(=O)[nH]c2c1 [Example 124, 2-Isopropyl-5-methoxy-1′,3′-dihydro-2′H-[1,5′-bibenzo[d]imidazol]-2′-one]",13
10,"CC(C)(C)OC(=O)N1CCC(S(=O)(=O)Nc2ccc3[nH]c(=O)[nH]c3c2)CC1 [Example 125, tert-Butyl 4-(N-(2-oxo-2,3-dihydro-1H-benzo[d]imidazol-5-yl)sulfamoyl)piperidine-1-carboxylate]",20
11,"CCOC(=O)c1ccc(NC(=O)Nc2ccc3[nH]c(=O)[nH]c3c2)cc1 [Example 126, Ethyl 4-(3-(2-oxo-2,3-dihydro-1H-benzo[d]imidazol-5-yl)ureido)benzoate]",9
12,"O=C(Nc1cccc(F)c1)Nc1ccc2[nH]c(=O)[nH]c2c1 [Example 127, 1-(3-Fluorophenyl)-3-(2-oxo-2,3-dihydro-1H-benzo[d]imidazol-5-yl)urea]",26
13,"COc1ccccc1N1CCN(C(=O)Nc2ccc3[nH]c(=O)[nH]c3c2)CC1 [Example 128, 4-(2-Methoxyphenyl)-N-(2-oxo-2,3-dihydro-1H-benzo[d]imidazol-5-yl)piperazine-1-carboxamide]",14
14,"O=C(Nc1ccc2[nH]c(=O)[nH]c2c1)N1CCc2ccc(Cl)cc21 [Example 129, 6-Chloro-N-(2-oxo-2,3-dihydro-1H-benzo[d]imidazol-5-yl)indoline-1-carboxamide]",188
15,"Cn1ccc(-c2cccc(NC(=O)c3ccc4[nH]c(=O)[nH]c4c3)c2)n1 [Example 130, N-(3-(1-Methyl-1H-pyrazol-3-yl)phenyl)-2-oxo-2,3-dihydro-1H-benzo[d]imidazole-5-carboxamide]",781
16,"CNC(=O)c1ccc2c(c1)nc(C1CCC(OC)CC1)n2-c1ccc2[nH]c(=O)[nH]c2c1 (stereo not shown) [Example 131, 2-(4-Methoxycyclohexyl)-N-methyl-2′-oxo-2′,3′-dihydro-1′H-[1,5′-bibenzo[d]imidazole]-5-carboxamide]",10
17,"COc1cnccc1C(=O)Nc1ccc2[nH]c(=O)[nH]c2c1 [Example 132, 3-Methoxy-N-(2-oxo-2,3-dihydro-1H-benzo[d]imidazol-5-yl)isonicotinamide]",< 1
18,"CNC(=O)c1ccc(C(=O)Nc2ccc3[nH]c(=O)[nH]c3c2)cn1 [Example 133, N2-Methyl-N5-(2-oxo-2,3-dihydro-1H-benzo[d]imidazol-5-yl)pyridine-2,5-dicarboxamide]",121

# Other lines, results leading:
row,Kd [nM],SMILES
1,7,"O=c1[nH]c2ccc(NS(=O)(=O)C3CCNCC3)cc2[nH]1 [Example 134, N-(2-Oxo-2,3-dihydro-1H-benzo[d]imidazol-5-yl)piperidine-4-sulfonamide]"
2,7,"O=C(Nc1ccc2[nH]c(=O)[nH]c2c1)N1CCN(Cc2ccc(Cl)cc2)CC1 [Example 135, 4-(4-Chlorobenzyl)-N-(2-oxo-2,3-dihydro-1H-benzo[d]imidazol-5-yl)piperazine-1-carboxamide]"
3,79,"O=C(Nc1ccc2[nH]c(=O)[nH]c2c1)c1ccccc1-c1ccncc1 [Example 136, N-(2-Oxo-2,3-dihydro-1H-benzo[d]imidazol-5-yl)-2-(pyridin-4-yl)benzamide]"
4,22,"O=c1[nH]c2ccc(NS(=O)(=O)c3coc4ccccc34)cc2[nH]1 [Example 137, N-(2-Oxo-2,3-dihydro-1H-benzo[d]imidazol-5-yl)benzofuran-3-sulfonamide]"
5,109,"COc1cccc(-c2ncccc2C(=O)Nc2ccc3[nH]c(=O)[nH]c3c2)c1 [Example 138, 2-(3-Methoxyphenyl)-N-(2-oxo-2,3-dihydro-1H-benzo[d]imidazol-5-yl)nicotinamide]"
6,4,"O=C(NC1CCN(Cc2ccccc2)CC1)c1ccc2[nH]c(=O)[nH]c2c1 [Example 139, N-(1-Benzylpiperidin-4-yl)-2-oxo-2,3-dihydro-1H-benzo[d]imidazole-5-carboxamide]"
7,168,"Nc1ccc2c(c1)CCN2c1ccc2[nH]c(=O)[nH]c2c1 [Example 140, 5-(5-Aminoindolin-1-yl)-1,3-dihydro-2H-benzo[d]imidazol-2-one hydrochloride]"
8,53,"CC(=O)Nc1ccc2c(c1)CCN2c1ccc2[nH]c(=O)[nH]c2c1 [Example 141, N-(1-(2-Oxo-2,3-dihydro-1H-benzo[d]imidazol-5-yl)indolin-5-yl)acetamide]"
9,11,"O=C(Nc1cccc(-c2cnco2)c1)c1ccc2[nH]c(=O)[nH]c2c1 [Example 142, N-(3-(Oxazol-5-yl)phenyl)-2-oxo-2,3-dihydro-1H-benzo[d]imidazole-5-carboxamide]"
10,159,"CC(C)(C)OC(=O)N1CCc2c(C(=O)Nc3ccc4[nH]c(=O)[nH]c4c3)cccc21 [Example 143, tert-Butyl 4-((2-oxo-2,3-dihydro-1H-benzo[d]imidazol-5-yl)carbamoyl)indoline-1-carboxylate]"
11,29,"O=C(Nc1ccc2[nH]c(=O)[nH]c2c1)c1cccc2c1CCN2 [Example 144, N-(2-Oxo-2,3-dihydro-1H-benzo[d]imidazol-5-yl)indoline-4-carboxamide]"
12,84,"CC(=O)N1CCc2c(C(=O)Nc3ccc4[nH]c(=O)[nH]c4c3)cccc21 [Example 145, 1-Acetyl-N-(2-oxo-2,3-dihydro-1H-benzo[d]imidazol-5-yl)indoline-4-carboxamide]"
13,18,"CC(=O)Nc1ccc(NCc2ccc3[nH]c(=O)[nH]c3c2)cc1 [Example 146, N-(4-(((2-Oxo-2,3-dihydro-1H-benzo[d]imidazol-5-yl)methyl)amino)phenyl)acetamide]"
